In ChEMBL document CHEMBL3769377, “A synthesis, in silico, in vitro and in vivo study of thieno[2,3-b]pyridine anticancer analogues” (Medchemcomm, 2015):
Activity calls are given as the source filed them. No cut-off for these calls is given here.

Tests used:
[1] = target: Serine/threonine-protein kinase PLK4 (Homo sapiens) (UniProt O00444); experiment: Inhibition of human recombinant PLK4 assessed as residual activity at 10 uM after 1 hr by qPCR analysis relative to control
[2] = target: Phosphatidylinositol 4,5-bisphosphate 3-kinase catalytic subunit alpha isoform (Homo sapiens) (UniProt P42336); experiment: Inhibition of human recombinant PIK3CA assessed as residual activity at 10 uM after 1 hr by qPCR analysis relative to control
Phosphatidylinositol 4,5-bisphosphate 3-kinase catalytic subunit alpha isoform (Homo sapiens), sequence (P42336 whole entry, canonical isoform): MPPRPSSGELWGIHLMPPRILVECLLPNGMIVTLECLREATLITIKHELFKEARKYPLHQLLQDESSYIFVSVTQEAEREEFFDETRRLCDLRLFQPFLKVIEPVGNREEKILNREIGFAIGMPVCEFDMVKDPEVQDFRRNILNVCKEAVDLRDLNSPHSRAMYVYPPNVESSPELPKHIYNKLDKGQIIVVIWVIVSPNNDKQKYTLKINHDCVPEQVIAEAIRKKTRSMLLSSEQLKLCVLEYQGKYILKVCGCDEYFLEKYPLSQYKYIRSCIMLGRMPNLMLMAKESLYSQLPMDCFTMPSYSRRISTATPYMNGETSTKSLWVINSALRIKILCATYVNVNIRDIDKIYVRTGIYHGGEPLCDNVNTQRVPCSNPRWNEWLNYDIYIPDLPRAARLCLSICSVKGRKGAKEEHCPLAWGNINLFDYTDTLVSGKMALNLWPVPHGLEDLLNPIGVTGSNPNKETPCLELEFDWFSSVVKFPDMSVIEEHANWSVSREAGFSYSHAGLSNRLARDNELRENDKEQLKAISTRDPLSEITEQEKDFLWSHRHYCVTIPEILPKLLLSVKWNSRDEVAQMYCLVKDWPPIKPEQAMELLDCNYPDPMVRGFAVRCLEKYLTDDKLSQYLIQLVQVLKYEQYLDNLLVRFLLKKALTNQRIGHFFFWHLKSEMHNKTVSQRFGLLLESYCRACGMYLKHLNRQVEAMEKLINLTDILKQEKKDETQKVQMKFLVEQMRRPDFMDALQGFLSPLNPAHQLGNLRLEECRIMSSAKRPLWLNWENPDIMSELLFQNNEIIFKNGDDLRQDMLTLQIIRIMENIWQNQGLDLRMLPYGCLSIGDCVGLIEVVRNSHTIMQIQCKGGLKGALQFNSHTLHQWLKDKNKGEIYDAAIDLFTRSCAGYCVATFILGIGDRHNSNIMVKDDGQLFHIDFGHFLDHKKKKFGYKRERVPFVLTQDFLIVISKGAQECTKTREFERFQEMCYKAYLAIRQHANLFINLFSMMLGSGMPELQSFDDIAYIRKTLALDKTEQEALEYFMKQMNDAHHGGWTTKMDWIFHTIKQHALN

[3] = target: Cyclin-dependent kinase 3 (Homo sapiens) (UniProt Q00526); experiment: Inhibition of human recombinant CDK3 assessed as residual activity at 10 uM after 1 hr by qPCR analysis relative to control
[4] = target: Serine/threonine-protein kinase RIO2 (Homo sapiens) (UniProt Q9BVS4); experiment: Inhibition of human recombinant RIOK2 assessed as residual activity at 10 uM after 1 hr by qPCR analysis relative to control
[5] = target: Tyrosine-protein kinase JAK2 (Homo sapiens) (UniProt O60674); experiment: Inhibition of human recombinant JAK2 (JH1 domain-catalytic) assessed as residual activity at 10 uM after 1 hr by qPCR analysis relative to control
[6] = target: Receptor-type tyrosine-protein kinase FLT3 (Homo sapiens) (UniProt P36888); experiment: Inhibition of human recombinant FLT3 assessed as residual activity at 10 uM after 1 hr by qPCR analysis relative to control
[7] = target: Vascular endothelial growth factor receptor 2 (Homo sapiens) (UniProt P35968); experiment: Inhibition of human recombinant VEGFR2 assessed as residual activity at 10 uM after 1 hr by qPCR analysis relative to control
[8] = target: Focal adhesion kinase 1 (Homo sapiens) (UniProt Q05397); experiment: Inhibition of human recombinant FAK assessed as residual activity at 10 uM after 1 hr by qPCR analysis relative to control
[9] = target: Mitogen-activated protein kinase 10 (Homo sapiens) (UniProt P53779); experiment: Inhibition of human recombinant JNK3 assessed as residual activity at 10 uM after 1 hr by qPCR analysis relative to control
786-0 = experiment: Antitumor activity against human 786-0 cells xenografted in athymic nude/beige mouse assessed as reduction in tumor mass at 0.16 mg/kg, ip qd after 24 days; format: functional, organism-based
[10] = target: Cyclin-dependent kinase 16 (Homo sapiens) (UniProt Q00536); experiment: Inhibition of human recombinant PCTK1 assessed as residual activity at 10 uM after 1 hr by qPCR analysis relative to control
Cyclin-dependent kinase 16 (Homo sapiens), sequence (Q00536 whole entry): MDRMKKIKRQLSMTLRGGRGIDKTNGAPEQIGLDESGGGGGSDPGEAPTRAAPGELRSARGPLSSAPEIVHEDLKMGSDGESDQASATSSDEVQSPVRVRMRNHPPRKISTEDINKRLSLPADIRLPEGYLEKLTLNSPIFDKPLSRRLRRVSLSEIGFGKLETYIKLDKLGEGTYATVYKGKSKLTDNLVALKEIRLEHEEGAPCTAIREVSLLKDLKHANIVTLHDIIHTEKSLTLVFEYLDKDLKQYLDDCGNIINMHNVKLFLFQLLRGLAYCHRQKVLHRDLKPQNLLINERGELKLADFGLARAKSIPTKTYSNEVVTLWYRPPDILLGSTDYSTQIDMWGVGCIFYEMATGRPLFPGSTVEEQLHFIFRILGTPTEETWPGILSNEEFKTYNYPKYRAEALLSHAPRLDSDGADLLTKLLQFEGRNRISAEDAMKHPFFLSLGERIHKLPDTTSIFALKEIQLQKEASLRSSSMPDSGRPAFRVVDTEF

[11] = target: Platelet-derived growth factor receptor alpha (Homo sapiens) (UniProt P16234); experiment: Inhibition of human recombinant PDGFRA assessed as residual activity at 10 uM after 1 hr by qPCR analysis relative to control
[12] = target: Receptor tyrosine-protein kinase erbB-4 (Homo sapiens) (UniProt Q15303); experiment: Inhibition of human recombinant ERBB4 assessed as residual activity at 10 uM after 1 hr by qPCR analysis relative to control
[13] = target: Ribosomal protein S6 kinase alpha-3 (Homo sapiens) (UniProt P51812); experiment: Inhibition of human recombinant N-terminal RSK2 kinase domain 1 assessed as residual activity at 10 uM after 1 hr by qPCR analysis relative to control
Ribosomal protein S6 kinase alpha-3 (Homo sapiens), sequence (P51812 whole entry, the tested form may be a part): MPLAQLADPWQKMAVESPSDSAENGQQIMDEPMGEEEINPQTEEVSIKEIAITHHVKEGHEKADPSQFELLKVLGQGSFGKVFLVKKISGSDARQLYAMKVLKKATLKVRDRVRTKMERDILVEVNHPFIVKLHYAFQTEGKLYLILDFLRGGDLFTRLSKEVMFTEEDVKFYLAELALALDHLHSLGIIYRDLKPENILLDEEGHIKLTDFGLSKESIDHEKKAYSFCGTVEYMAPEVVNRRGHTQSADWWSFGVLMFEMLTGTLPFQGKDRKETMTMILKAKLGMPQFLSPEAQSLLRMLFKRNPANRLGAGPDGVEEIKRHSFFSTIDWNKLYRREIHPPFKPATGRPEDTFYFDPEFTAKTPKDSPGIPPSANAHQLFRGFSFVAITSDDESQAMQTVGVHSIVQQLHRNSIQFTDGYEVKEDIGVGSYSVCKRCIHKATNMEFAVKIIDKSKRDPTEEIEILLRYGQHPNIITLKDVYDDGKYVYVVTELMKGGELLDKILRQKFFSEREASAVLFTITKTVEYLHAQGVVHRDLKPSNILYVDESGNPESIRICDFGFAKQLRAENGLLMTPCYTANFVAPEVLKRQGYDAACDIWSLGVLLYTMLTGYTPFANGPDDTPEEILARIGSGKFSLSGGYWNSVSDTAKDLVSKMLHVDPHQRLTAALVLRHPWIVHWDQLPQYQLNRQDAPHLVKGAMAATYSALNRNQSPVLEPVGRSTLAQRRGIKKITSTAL

[14] = target: Mitogen-activated protein kinase kinase kinase 9 (Homo sapiens) (UniProt P80192); experiment: Inhibition of human recombinant MLK1 assessed as residual activity at 10 uM after 1 hr by qPCR analysis relative to control
Mitogen-activated protein kinase kinase kinase 9 (Homo sapiens), sequence (P80192 whole entry, looked up, canonical isoform): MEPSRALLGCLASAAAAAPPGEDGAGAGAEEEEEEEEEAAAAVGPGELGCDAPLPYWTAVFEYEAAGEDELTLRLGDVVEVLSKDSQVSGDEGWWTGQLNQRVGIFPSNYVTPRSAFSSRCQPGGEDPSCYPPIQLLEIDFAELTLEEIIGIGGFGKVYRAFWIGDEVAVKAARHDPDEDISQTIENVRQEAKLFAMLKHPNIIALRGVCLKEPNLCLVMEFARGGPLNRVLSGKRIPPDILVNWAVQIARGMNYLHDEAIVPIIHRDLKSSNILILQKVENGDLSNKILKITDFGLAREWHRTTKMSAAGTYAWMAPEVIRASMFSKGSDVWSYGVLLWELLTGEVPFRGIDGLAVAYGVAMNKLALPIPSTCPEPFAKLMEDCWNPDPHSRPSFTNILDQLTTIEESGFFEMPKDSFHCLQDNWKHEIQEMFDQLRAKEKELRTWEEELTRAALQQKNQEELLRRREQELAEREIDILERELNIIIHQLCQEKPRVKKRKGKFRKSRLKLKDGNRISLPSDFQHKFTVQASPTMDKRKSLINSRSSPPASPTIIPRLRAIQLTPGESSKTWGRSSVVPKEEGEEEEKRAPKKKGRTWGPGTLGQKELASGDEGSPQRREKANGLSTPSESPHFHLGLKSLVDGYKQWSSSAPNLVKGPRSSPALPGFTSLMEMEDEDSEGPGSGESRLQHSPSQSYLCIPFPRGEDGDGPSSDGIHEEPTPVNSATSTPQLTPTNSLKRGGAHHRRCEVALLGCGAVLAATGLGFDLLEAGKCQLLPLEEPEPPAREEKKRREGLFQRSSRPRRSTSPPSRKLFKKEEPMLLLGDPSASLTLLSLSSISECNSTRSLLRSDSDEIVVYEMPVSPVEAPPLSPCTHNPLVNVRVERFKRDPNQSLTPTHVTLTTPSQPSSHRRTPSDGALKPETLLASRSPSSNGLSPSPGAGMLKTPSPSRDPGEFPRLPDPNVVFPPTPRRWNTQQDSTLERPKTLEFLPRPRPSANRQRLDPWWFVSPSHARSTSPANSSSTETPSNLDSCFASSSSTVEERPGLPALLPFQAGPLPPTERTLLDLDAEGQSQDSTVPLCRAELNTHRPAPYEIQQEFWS

[15] = target: Casein kinase I isoform delta (Homo sapiens) (UniProt P48730); experiment: Inhibition of human recombinant CSNK1D assessed as residual activity at 10 uM after 1 hr by qPCR analysis relative to control
[16] = tested on: Epidermal growth factor receptor (Homo sapiens), P00533 [L858R]; experiment: Inhibition of human recombinant EGFR L858R mutant assessed as residual activity at 10 uM after 1 hr by qPCR analysis relative to control; format: protein assay
[17] = target: Tyrosine-protein kinase receptor UFO (Homo sapiens) (UniProt P30530); experiment: Inhibition of human recombinant AXL assessed as residual activity at 10 uM after 1 hr by qPCR analysis relative to control
[18] = target: Activin receptor type-1B (Homo sapiens) (UniProt P36896); experiment: Inhibition of human recombinant ACVR1B assessed as residual activity at 10 uM after 1 hr by qPCR analysis relative to control
[19] = tested on: Tyrosine-protein kinase ABL1 (Homo sapiens), P00519 [E255K]; experiment: Inhibition of human recombinant phosphorylated ABL1 E255K mutant assessed as residual activity at 10 uM after 1 hr by qPCR analysis relative to control
[20] = target: Epidermal growth factor receptor (Homo sapiens) (UniProt P00533); experiment: Inhibition of human recombinant EGFR assessed as residual activity at 10 uM after 1 hr by qPCR analysis relative to control
[21] = target: Serine/threonine-protein kinase B-raf (Homo sapiens) (UniProt P15056); experiment: Inhibition of human recombinant BRAF assessed as residual activity at 10 uM after 1 hr by qPCR analysis relative to control
[22] = target: Phosphatidylinositol 4,5-bisphosphate 3-kinase catalytic subunit gamma isoform (Homo sapiens) (UniProt P48736); experiment: Inhibition of human recombinant PIK3CG assessed as residual activity at 10 uM after 1 hr by qPCR analysis relative to control
[23] = target: Dual specificity mitogen-activated protein kinase kinase 2 (Homo sapiens) (UniProt P36507); experiment: Inhibition of human recombinant MEK2 assessed as residual activity at 10 uM after 1 hr by qPCR analysis relative to control
[24] = target: Platelet-derived growth factor receptor beta (Homo sapiens) (UniProt P09619); experiment: Inhibition of human recombinant PDGFRB assessed as residual activity at 10 uM after 1 hr by qPCR analysis relative to control
[25] = target: Serine/threonine-protein kinase PLK1 (Homo sapiens) (UniProt P53350); experiment: Inhibition of human recombinant PLK1 assessed as residual activity at 10 uM after 1 hr by qPCR analysis relative to control
[26] = target: Mitogen-activated protein kinase 9 (Homo sapiens) (UniProt P45984); experiment: Inhibition of human recombinant JNK2 assessed as residual activity at 10 uM after 1 hr by qPCR analysis relative to control
Mitogen-activated protein kinase 9 (Homo sapiens), sequence (P45984 whole entry, looked up): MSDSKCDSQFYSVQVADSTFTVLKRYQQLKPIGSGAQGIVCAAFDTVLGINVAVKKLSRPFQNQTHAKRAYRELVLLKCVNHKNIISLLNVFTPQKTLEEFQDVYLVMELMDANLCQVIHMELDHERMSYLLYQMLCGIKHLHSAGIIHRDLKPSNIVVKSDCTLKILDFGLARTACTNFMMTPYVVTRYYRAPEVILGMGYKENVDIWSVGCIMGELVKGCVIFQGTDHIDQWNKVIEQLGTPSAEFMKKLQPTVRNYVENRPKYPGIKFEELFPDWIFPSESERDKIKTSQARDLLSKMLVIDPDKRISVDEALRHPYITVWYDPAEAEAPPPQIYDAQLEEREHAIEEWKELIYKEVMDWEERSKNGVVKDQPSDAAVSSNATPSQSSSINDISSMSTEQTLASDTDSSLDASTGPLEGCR

[27] = target: Rho-associated protein kinase 2 (Homo sapiens) (UniProt O75116); experiment: Inhibition of human recombinant ROCK2 assessed as residual activity at 10 uM after 1 hr by qPCR analysis relative to control
[28] = target: Proto-oncogene tyrosine-protein kinase Src (Homo sapiens) (UniProt P12931); experiment: Inhibition of human recombinant SRC assessed as residual activity at 10 uM after 1 hr by qPCR analysis relative to control
[29] = target: Fibroblast growth factor receptor 3 (Homo sapiens) (UniProt P22607); experiment: Inhibition of human recombinant FGFR3 assessed as residual activity at 10 uM after 1 hr by qPCR analysis relative to control
[30] = target: Aurora kinase A (Homo sapiens) (UniProt O14965); experiment: Inhibition of human recombinant AURKA assessed as residual activity at 10 uM after 1 hr by qPCR analysis relative to control

Serine/threonine-protein kinase PLK4 (Homo sapiens), sequence (O00444 whole entry, canonical isoform): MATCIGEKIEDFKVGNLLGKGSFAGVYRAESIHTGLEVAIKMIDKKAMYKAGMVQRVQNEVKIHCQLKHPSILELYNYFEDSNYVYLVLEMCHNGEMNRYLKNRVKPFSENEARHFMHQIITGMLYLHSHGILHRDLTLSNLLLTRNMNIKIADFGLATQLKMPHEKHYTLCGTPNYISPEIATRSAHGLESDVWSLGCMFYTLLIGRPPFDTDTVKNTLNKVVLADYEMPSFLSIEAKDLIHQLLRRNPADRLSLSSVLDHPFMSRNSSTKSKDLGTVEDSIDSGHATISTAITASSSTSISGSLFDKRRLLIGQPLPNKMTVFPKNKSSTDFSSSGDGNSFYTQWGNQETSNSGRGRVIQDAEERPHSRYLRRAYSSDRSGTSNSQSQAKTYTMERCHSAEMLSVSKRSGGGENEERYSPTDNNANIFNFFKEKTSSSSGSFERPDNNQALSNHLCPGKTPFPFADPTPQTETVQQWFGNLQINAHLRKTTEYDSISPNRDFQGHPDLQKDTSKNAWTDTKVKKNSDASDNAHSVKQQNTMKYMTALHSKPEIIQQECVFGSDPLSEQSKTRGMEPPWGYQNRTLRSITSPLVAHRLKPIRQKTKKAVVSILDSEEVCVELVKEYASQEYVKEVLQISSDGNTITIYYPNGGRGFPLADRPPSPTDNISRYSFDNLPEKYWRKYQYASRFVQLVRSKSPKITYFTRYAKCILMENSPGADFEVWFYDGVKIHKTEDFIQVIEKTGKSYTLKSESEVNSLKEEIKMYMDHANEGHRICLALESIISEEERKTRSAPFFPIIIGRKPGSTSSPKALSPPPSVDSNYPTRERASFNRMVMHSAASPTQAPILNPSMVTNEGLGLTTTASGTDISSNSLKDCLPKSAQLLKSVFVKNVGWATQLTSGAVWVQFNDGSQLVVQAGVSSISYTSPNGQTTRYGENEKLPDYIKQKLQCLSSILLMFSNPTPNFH

Work on `Cc1c(Cl)cccc1NC(=O)c1sc2nc3c(cc2c1N)C(=O)CC3` yielded an Activity [1] of 100%, an Activity [2] of 100% and an Activity [3] of 100%. For the same molecule, the Activity [4] was 43%, the Activity [5] was 94% and the Activity [6] was 100%. It also gave an Activity [7] of 100%, an Activity [8] of 100% and an Activity [9] of 95%. For the same molecule, the Activity (786-0) was “Active”, the Activity [10] was 100% and the Activity [11] was 100%. It also gave an Activity [12] of 100%, an Activity [13] of 94% and an Activity [14] of 99%. For the same molecule, the Activity [15] was 100%, the Activity [16] was 92% and the Activity [17] was 100%. The Activity [18] was 100%, the Activity [19] was 100% and the Activity [20] was 100%. The Activity [21] was 96%, the Activity [22] was 100% and the Activity [23] was 98%. For the same molecule, the Activity [24] was 95%, the Activity [25] was 91% and the Activity [26] was 93%. It also gave an Activity [27] of 100%, an Activity [28] of 95% and an Activity [29] of 100%. The Activity [30] was 98%.
